According to patent US20070037816A1, “Bicyclic piperazines as metabotropic glutatmate receptor antagonists” (AstraZeneca AB, priority 2005, published 2007):

The molecules below were run against T1, human mGluR5d (Homo sapiens, UniProt P41594) (assay: Functional assessment of mGluR5 antagonism in cell lines expressing mGluR5d (FLIPR calcium mobilization / IP3 turnover; assay not given)). Conditions: cells expressing human mGluR5d; assay (FLIPR or IP3) not stated.
T1 construct: expressed in transfected cells; host or cells: GHEK (HEK cells expressing a glutamate transporter) for the IP3 assay
Type: cell-based
Text: The pharmacological properties of the compounds of the invention can be analyzed using standard assays for functional activity. Examples of glutamate receptor assays are well known in the art as described in for example Aramori et al., Neuron 8:757 (1992), Tanabe et al., Neuron 8:169 (1992), Miller et al., J. Neuroscience 15: 6103 (1995), Balazs, et al., J. Neurochemistry 69:151 (1997). The methodology described in these publications is incorporated herein by reference. Conveniently, the compounds of the invention can be studied by means of an assay that measures the mobilization of intracellular calcium, [Ca^2+]i in cells expressing mGluR5.
Intracellular calcium mobilization was measured by detecting changes in fluorescence of cells loaded with the fluorescent indicator fluo-3. Fluorescent signals were measured using the FLIPR system (Molecular Devices). A two addition experiment was used that could detect compounds that either activate or antagonize the receptor.
For FLIPR analysis, cells expressing human mGluR5d were seeded on collagen coated clear bottom 96-well plates with black sides and analysis of [Ca^2+]i mobilization was done 24 hours after seeding.
FLIPR experiments were done using a laser setting of 0.800 W and a 0.4 second CCD camera shutter speed. Each FLIPR experiment was initiated with 160 μL of buffer present in each well of the cell plate. After each addition of the compound, the fluorescence signal was sampled 50 times at 1 second intervals followed by 3 samples at 5 second intervals. Responses were measured as the peak height of the response within the sample period.
EC50 and IC50 determinations were made from data obtained from 8-point concentration response curves (CRC) performed in duplicate. Agonist CRC were generated by scaling all responses to the maximal response observed for the plate. Antagonist block of the agonist challenge was normalized to the average response of the agonist challenge in 14 control wells on the same plate.
We have validated a secondary functional assay for mGluR5d based on Inositol Phosphate (IP3) turnover. IP3 accumulation is measured as an index of receptor mediated phospholipase C turnover. GHEK cells stably expressing the human mGluR5d receptors were incubated with [3H] myo-inositol overnight, washed three times in HEPES buffered saline and pre-incubated for 10 minutes with 10 mM LiCl. Compounds (agonists) were added and incubated for 30 minutes at 37° C. Antagonist activity was determined by pre-incubating test compounds for 15 minutes, then incubating in the presence of glutamate (80 μM) or DHPG (30 μM) for 30 minutes. Reactions were terminated by the addition of perchloric acid (5%). Samples were collected and neutralized, and inositol phosphates were separated using Gravity-Fed Ion-Exchange Columns.
Functional Assessment of mGluR5 Antagonism in Cell Lines Expressing mGluR5d
The properties of the compounds of the invention can be analyzed using standard assays for pharmacological activity. Examples of glutamate receptor assays are well known in the art as described in for example Aramori et al, Neuron 8:757 (1992), Tanabe et al., Neuron 8:169 (1992), Miller et al, J. Neuroscience 15: 6103 (1995), Balazs, et al, J. Neurochemistry 69:151 (1997). The methodology described in these publications is incorporated herein by reference. Conveniently, the compounds of the invention can be studied by means of an assay (FLIPR) that measures the mobilization of intracellular calcium, [Ca^2+]i in cells expressing mGluR5 or another assay (IP3) that measures inositol phosphate turnover.
Cells expressing human mGluR5d as described in W097/05252 are seeded at a density of 100,000 cells per well on collagen coated clear bottom 96-well plates with black sides and experiments are done 24 h following seeding. […]

T1 sequence (P41594 21-942 isoform P41594-3 limits assumed): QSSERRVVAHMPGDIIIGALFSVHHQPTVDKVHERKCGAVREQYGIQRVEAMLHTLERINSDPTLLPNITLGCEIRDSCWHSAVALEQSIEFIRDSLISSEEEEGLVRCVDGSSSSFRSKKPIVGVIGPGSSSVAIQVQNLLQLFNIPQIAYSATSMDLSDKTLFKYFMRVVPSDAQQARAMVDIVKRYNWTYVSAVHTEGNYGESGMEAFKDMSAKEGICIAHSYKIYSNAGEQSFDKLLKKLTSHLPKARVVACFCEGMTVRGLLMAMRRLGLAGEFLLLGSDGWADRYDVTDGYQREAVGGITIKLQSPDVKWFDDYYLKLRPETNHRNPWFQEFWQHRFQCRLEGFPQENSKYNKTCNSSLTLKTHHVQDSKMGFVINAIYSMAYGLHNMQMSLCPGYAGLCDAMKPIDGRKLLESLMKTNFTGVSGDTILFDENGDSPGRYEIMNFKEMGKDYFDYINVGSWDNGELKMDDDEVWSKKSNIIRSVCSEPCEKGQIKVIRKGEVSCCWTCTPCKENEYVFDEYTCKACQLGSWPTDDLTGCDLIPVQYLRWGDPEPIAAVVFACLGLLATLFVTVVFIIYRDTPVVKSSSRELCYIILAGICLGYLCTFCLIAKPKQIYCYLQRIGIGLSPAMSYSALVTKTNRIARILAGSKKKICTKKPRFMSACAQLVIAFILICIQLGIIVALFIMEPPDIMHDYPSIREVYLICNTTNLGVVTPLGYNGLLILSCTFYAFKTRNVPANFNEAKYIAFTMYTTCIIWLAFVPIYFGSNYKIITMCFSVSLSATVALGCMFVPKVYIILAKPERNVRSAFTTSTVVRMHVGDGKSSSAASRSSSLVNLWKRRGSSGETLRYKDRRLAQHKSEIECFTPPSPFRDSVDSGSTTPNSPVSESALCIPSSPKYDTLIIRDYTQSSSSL

For `N#Cc1nccnc1N1CCN2[C@@H](CC[C@@H]2c2nnn(-c3cccc(Cl)c3)n2)C1` (racemic) [Example 5.1, (±)-3-[(6R,8aS)-6-[2-(3-chlorophenyl)-2H-tetrazol-5-yl]hexahydropyrrolo[1,2-a]pyrazin-2(1H)-yl]pyrazine-2-carbonitrile], which EC50 is on record?
The EC50 was 10 nM.

`N#Cc1ccc(N2CCN3[C@@H](CC[C@@H]3c3cc(-c4cccc(Cl)c4)on3)C2)nc1` (racemic) [Example 6.2, (±)-6-[(6R,8aS)-6-[5-(3-chlorolphenyl)isoxazol-3-yl]hexahydropyrrolo[1,2-a]pyrazin-2(1H)-yl]nicotinonitrile] was tested. Which EC50 did it give?
The EC50 was 2410 nM.

`N#Cc1cccnc1N1CCN2[C@@H](CC[C@@H]2c2cn(-c3cccc(F)c3)nn2)C1` (racemic) [Example 4.1, (±)-2-[(6R,8aS)-6-[1-(3-fluorophenyl)-1H-1,2,3-triazol4-yl]hexahydropyrrolo[1,2-a]pyrazin-2(1H)-yl]nicotinonitrile] was tested. Which EC50 did it give?
Its EC50 is 219 nM.

With `N#Cc1cccc(-c2cc([C@H]3CCC[C@H]4CN(c5nccnc5C#N)CCN43)no2)c1` (racemic) [Example 13.1, (±)-3-[(6R,9aS)-6-[5-(3-cyanophenyl)isoxazol-3-yl]octahydro-2H-pyrido[1,2-a]pyrazin-2-yl]pyrazine-2-carbonitrile] as the molecule, how does the EC50 read?
Its EC50 is 159 nM.

`N#Cc1nccnc1N1CCN2[C@@H](CC[C@@H]2c2cc(-c3cccc(Cl)c3)no2)C1` (racemic) [Example 8.1, (±)-3-[(6R,8aS)-6-[3-(3-chlorophenyl)isoxazol-5-yl]hexahydropyrrolo[1,2-a]pyrazin-2(1H)-yl]pyrazine-2-carbonitrile] was tested. Which EC50 did it give?
Its EC50 is 377 nM.

For `Cc1cccc(-n2nnc([C@H]3CC[C@H]4CN(c5ncccc5C#N)CCN43)n2)c1` (racemic) [Example 5.4, (±)-2-[(6R,8aS)-6-[2-(3-methylphenyl)-2H-tetrazol-5-yl]hexahydropyrrolo[1,2-a]pyrazin-2(1H)-yl]nicotinonitrile], which EC50 is on record?
Its EC50 is 16 nM.
